Results from patent publication US20240115658A1, “Use of an intervertebral disc fibrosis-inducing substance in preparation of medication” (Shanghai Ninth People's Hospital, Shanghai JiaoTong …, priority 2020, published 2024).

Legend:
[1] = test system: punctured intervertebral disc (spinal degeneration); experiment: Safranin O-fast green staining, Sirius red staining and immunofluorescence of disc paraffin sections; type: in vivo, Sprague-Dawley rats
Method: Fixed disc tissue specimens (sham group, Puncture group, and Bleomycin group) were embedded in paraffin blocks, followed by tissue sectioning (with a thickness of 5 μm). For histological evaluation, paraffin sections were stained with saffron O-solid green and Sirius red according to standard laboratory protocols. For immunofluorescence detection, tissue sections were de-paraffined in graded xylene, rehydrated in graded alcohol solution, and then incubated in antigen retrieval buffer (Roche) at 37° C. for 30 min. After cooling to room temperature, the slides were immersed in PBS (pH 7.4) and washed 3 times for 5 min each. Autofluorescence quencher was added to the sections, and 5 min later, blocking buffer was added to block the sections for 30 min at room temperature. The sections were then incubated with primary antibodies overnight in a wet chamber at 4° C. Primary antibodies were diluted at a ratio of 1:100, and included anti-Col1a1, anti-FSP1, anti-TGFβ, and anti-TGFβR1 (all purchased from Cell Signaling Technology). The next day, sections were washed with PBS, conjugated to secondary antibody (anti-rabbit, 1:500; Cell Signaling Technology) through Alexa-fluor594, and then incubated for 50 min in the dark at room temperature. The sections were washed with PBS and then incubated with DAPI solution (Sigma Aldrich, St. Louis, MO, USA) for 10 minutes in the dark to stain the nucleus. The sections were subjected to a final PBS wash, air-dried, and then sealed with an anti-fluorescence quenching flake. Digital fluorescence images were taken by using a Leica DM4000 B epifluorescence microscope (Leica Microsystems).

[2] = test system: punctured intervertebral disc (spinal degeneration); experiment: Atomic force analysis of punctured disc paraffin sections; type: in vivo, Sprague-Dawley rats; details: Puncture+Bleomycin; FIG. 7 and 8
Method: Atomic force analysis was performed by first extracting and dissecting the punctured vertebrae. Paraffin sections were made and then nanoindented (R<10 nm, nominal N/m, tips: Si/Tipless/Top, cantilevered Si/Al/Top; Park Systems) by using a Park NX20 (Park Systems, Korea) equipped with a microsphere colloidal tip. For undulating surfaces with large areas, a scan rate of 13 hz was used. Large scanning rates can reduce drift, but are generally only used to scan small planes. Indentation was performed by using a scanning Asyst air probe, where a z-piezo displacement rate was 10 μm/s, a maximum load was ˜120 nn, a curvature radius was 5 nm, and a force constant was 0.4 N/m.

[3] = test system: TGF-β/Smad pathway in annulus fibrosus cells; experiment: Immunoprotein western-blotting of annulus fibrosus cells (activation of the TGF-β/Smad pathway); type: cell-based
Method: Activation of the TGF-β/Smad pathway in annulus fibrosus cells by bleomycin:
Method for immunoprotein western-blotting of annulus fibrosus cells:
Annulus fibrosus cells (provided by CAS Cell Bank) were cultured in a six-well plate to which high-sugar DMEM medium+10% fetal bovine serum was added, the plate was placed in a 5% CO2 incubator at 37° C., and 5, 10 μg/ml of bleomycin and/or the TGFβR1 inhibitor LY364947 was added when the cell confluence was 70%-80% to co-culture for 30 min or 24 h. Total cellular protein was extracted from cultured annulus fibrosus cells (Medical Center of Rush University) by using RIPA lysis buffer (Roche, Basel, Switzerland) containing phosphatase and protease inhibitors. Equal amounts (20-30 μg) of extracted proteins were obtained by using 10% or 12.5% SDSPAGE gel, and proteins were separated by electroblotting with 0.22 μm PVDF membrane (Merck Millipore). The PVDF membrane was blocked with 5% BSA-PBS for 1 h at room temperature and then incubated with primary antibody (diluted at a ratio of 1:1000 in 5% BSA-PBS) overnight (at least 16 h) at 4° C. Anti-SMAD2 antibody (Ser308, D4364; rabbit monoclonal antibody), anti-phosphorylated SMAD2 antibody (Ser465/467, 138D4; rabbit monoclonal antibody), anti-SMAD3 antibody (C67H9; rabbit monoclonal antibody), anti-phosphorylated SMAD3 antibody (Ser423/425, C25A9; rabbit monoclonal antibody), anti-SMAD2/3 antibody (D7G7; rabbit monoclonal antibody), anti-phospho SMAD2/3 antibody (Ser465/467; Ser423/425; rabbit monoclonal antibody), anti-SMAD4 antibody (D3M6U; rabbit monoclonal antibody), and […] antibody (D6A8; rabbit monoclonal antibody) were purchased from Cell Signaling Technology (Danvers, Massachusetts, USA). […] The membrane was extensively rinsed in TBST again and protein immunobands were detected by using the LI-COR Odyssey Fluorescence Imaging System (LICOR Biosciences, Lincoln, NE, USA). […]

[4] = test system: punctured intervertebral disc (spinal degeneration); experiment: Digital X-ray and MRI imaging of punctured rat tail discs after disc local injection of bleomycin; type: in vivo, Sprague-Dawley rats; details: 5 μl of 10 and 5 μg/ml bleomycin per disc, injected two weeks after puncture, four weeks recovery
Method: Six 8-week-old male Sprague-Dawley rats (Shanghai Laboratory, Shanghai Animal Research Center, China) were raised at 26-28° C. and 50-65% humidity for 12 h day and night. […] Before surgery, the rats were anesthetized by intraperitoneal injection of sodium pentobarbital (5 mg/100 g of body weight). The tails of rats were disinfected with iodinated polyvinyl pyrrolidone, and then a longitudinal skin incision was made to the tail near the ventral part to expose 6-10 parts of the intervertebral disc of the tail bone. The Co6/7 disc was used as a sham control, and Co7/8, Co8/9, and Co9/10 were used as experimental groups. A sterile 20-gauge needle was used to perpendicularly puncture the intervertebral disc through the skin, so as to ensure the needle passed through the annulus fibrosus and stuck into the nucleus pulposus located at the center of the intervertebral disc. The incision was then sutured and the rats were allowed to recover for two weeks. The rats (n=6) were re-subjected to surgery to expose Co8/9 and Co9/10 discs, and 5 μl of 10 and 5 μg/ml bleomycin were injected into each disc. The surgical incision was then sutured and the rats were allowed to recover for four weeks. At the end of the experiment, all rats were executed, the tails were collected, the soft tissues were cleared, and the spines were fixed with 4% PFA. Co6/7 was the control group (sham group), Co7/8 was the Puncture group, and Co8/9 and Co9/10 were the puncture+bleomycin administration groups (Bleomycin group).
Digital X-ray imaging of the punctured disc samples (Puncture and Bleomycin groups) prepared in Embodiment 2 was performed in the anterior-posterior axis with a detector that provides up to 5× geometric magnification (Faxitron VersaVision; Faxitron Bioptics LLC, Tucson, AZ. USA). MRI imaging of the same punctured disc samples was performed on a Siemens MagnetomPrisma E11 (Siemens Healthineers, Erlangen, Germany) with the following parameters: TR 3000 ms, TE 80 ms, thickness 1.1 mm, interval 0.22 mm, field of view 160×65 mm, voxel size 0.25×0.1 mm.

[5] = 10 and 5 μg/ml of bleomycin, compared with the puncture group and the control group, FIG. 4
[6] = Puncture+Bleomycin vs Puncture group, FIG. 3

## bleomycin
[1]; [5]
  staining percentage of annulus fibrous (green): significantly increased
  staining percentage of type I collagen (yellow): significantly increased
  staining percentage of type III collagen (green): significantly increased
[1]; Puncture+, Bleomycin 10 or 5, FIGS. 5 and 6
  type I and type III collagens secreted (immunofluorescence): a large amount of type I and type III collagens was secreted
[1]; [6]
  annulus fibrosus repair (staining): completely repaired and migrated inward
  intervertebral space height (Safranin O-fast green and Sirius red staining): significantly higher
  type I collagen secreted to fill the intervertebral space (staining): large amounts of type I collagen were secreted
[2]
  fibrosis (atomic force analysis): faster fibrosis
  intervertebral space height (atomic force analysis): preservation of the intervertebral space height
  resistance of the disc to deformation (atomic force analysis): increase in the resistance of the disc to deformation
[3]; 5, 10 μg/ml bleomycin, co-culture 30 min or 24 h, western blot, FIG. 1A and 1B
  p-smad2 and p-smad3 in annulus fibrosus cells: activated
[3]; 5, 10 μg/ml bleomycin, co-culture 30 min or 24 h, western blot, FIG. 1C
  expression of end-protein products Col1a1 and FSP1: increased
[3]; legend of FIG. 1C
  fibrogenic-associated proteins TGFβ, FSP1, and Col1a1 (immunoprotein western-blot): highly expressed
[4]
  signal of the intervertebral disc (MRI): difficult to be preserved
  stability of the disc (X-ray and MRI): not significantly affected
[4]; vs Puncture group
  intervertebral space height (X-ray and MRI): effectively maintained
